Source: US20020010182A1, “Piperazine derivatives as tachykinin antagonists” (FUJISAWA PHARMACEUTICAL CO., LTD., priority 1995, published 2002)

Key:
[1] = molecular target: T1, h-NK1 receptors (Homo sapiens, UniProt P25103); experiment: Evaluation of NK1 antagonist transport efficiency to the central nervous system using a h-NK1 receptor binding assay; details: 5 min, brain extract of male SD rats 5 min after i.v. injection of test compound, CHO cell membranes expressing h-NK1, read-out: inhibition rate of 125I-BH-Substance P binding to h-NK1 receptors
T1 construct: expressed in transfected cells; host or cells: CHO cells (permanent expression), crude cell membranes
T1 sequence (P25103 whole entry): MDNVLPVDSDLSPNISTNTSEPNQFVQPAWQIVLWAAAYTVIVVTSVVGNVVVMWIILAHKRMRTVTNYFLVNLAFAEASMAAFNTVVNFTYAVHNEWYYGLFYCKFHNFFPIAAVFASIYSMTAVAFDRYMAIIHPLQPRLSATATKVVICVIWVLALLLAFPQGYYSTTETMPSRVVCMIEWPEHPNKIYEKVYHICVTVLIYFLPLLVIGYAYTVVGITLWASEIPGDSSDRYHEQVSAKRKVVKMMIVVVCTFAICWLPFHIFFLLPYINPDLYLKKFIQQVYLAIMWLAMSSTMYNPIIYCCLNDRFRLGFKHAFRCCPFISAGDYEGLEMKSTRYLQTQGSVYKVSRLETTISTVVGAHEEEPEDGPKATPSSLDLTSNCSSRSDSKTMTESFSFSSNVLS
Description: A. Evaluation of NK1 Antagonist Transport Efficiency to the Cental Nervous System Using a h-NK1 Receptor Binding Assay
(1) Administration of Test Compound and Extraction of the Compound From Brain
Male SD rats were given an i.v. injection of a solution containing a test compound (1 mg/kg). 5 Min later the animals were anesthetized by ether, bled and perfused through the aorta ascendens with 20 ml of saline. The brain was rapidly removed, weighed and homogenized in 4 vol. ice-cold distilled water by using Polytoron (KINEMATICA). To extract the test compound, 500 μl of the homogenate, 100 μl of methanol, 500 μl of 0.1 N NaOH and 4 ml of ethyl acetate were mixed by shaking for 10 min at room temperature. The organic phase (2.5 ml) was recovered by centrifugation at 3,000 rpm for 10 min, dried and dissolved in dimethyl sulfoxide.
(2) h-NK1 Receptor Binding Assay
(a) Crude CHO Cell Membrane Preparation
CHO cells permanently expressing h-NK1 receptors were harvested and homogenized with a Dounce homogenizer at 4° C. in a buffer (0.25 M sucrose, 25 mM Tris-HCl (pH 7.4), 10 mM MgCl2, 1 mM EDTA, 5 μg/ml p-APMSF). The homogenate was centrifuged (500×g, 10 min), and the pellet was resuspended in the same buffer, homogenized, and centrifuged. The two supernatants were combined and centrifuged (100,000×g, 1 hour). The crude cell membranes thus isolated were resuspended in a buffer (25 MM Tris-HCl (pH 7.4), 10 mM MgCl2, 1 mM EDTA, 5 μg/ml p-APMSF) and stored at −80° C. until use.
(b) ^125I-BH-Substance P Binding to the Prepared Membrane
Cell membranes (6 μg/ml) were incubated with ^125I-BH-Substance P (0.1 nM) with or without the extracted compounds in 0.25 ml of a medium (50 mM Tris-HCl (pH 7.4), 5 mM MnCl2, 20 μg/ml chymrostatin, 40 μg/ml bacitracin, 4 μg/ml leupeptin, 5 μg/ml p-APMSF, 200 μg/ml BSA) at 22° C. for 90 min. At the end of the incubation period, the contents were quickly filtered through a Blue Mat 11740 filter (pretreated with 0.1% polyethylenimine for 3 hours prior to use) by using SKATRON Cell Harvester. The filter was then washed with a washing buffer (50 mM Tris-HCl (pH 7.4), 5 mM MnCl2) . The radioactivity was counted by using an auto gamma counter (Packard RIASTAR 5420A). All data presented are specific binding defined as that displaceable by 3 μM unlabeled Substance P.

[2] = system: emesis in the ferret; experiment: Emesis in the ferret (copper sulfate induced); type: in vivo; details: i.p. dose of 3.2 and/or 10 mg/kg, 30 min before intra-gastric copper sulfate (40 mg/kg/ml); retching and vomiting observed for 30 min
Description: Individually housed adult male ferrets (Marshall Farms, 1.4 to 2.2 kg) were given an i.p. injection of a solution containing a test compound 30 Min later the emetic responses (retching and vomiting) were induced by administration of intra-gastric copper sulfate (40 mg/kg/ml) and observed for the next 30 min. The timing and number of retches and vomits observed were recorded for each animal. An individual animal was tested with at least 10 days between experiments.

| Compound | melting point | inhibition at 1 mg/kg [1] | inhibition rate of emesis in the ferret [2] |
| --- | --- | --- | --- |
| Cl.Cl.O=C(c1cc(C(F)(F)F)cc(C(F)(F)F)c1)N1CCN(C/C=C/CN2CCOCC2)C[C@H]1Cc1ccc2ccccc2c1 [62-(1), (2R)-1-[3,5-Bis(trifluoromethyl)benzoyl]-2-(2-naphthylmethyl)-4-[(E)-4-morpholino-2-butenyl]piperazine dihydrochloride] | > 230 °C | > 80% | – |
| Cc1ccc(C[C@@H]2CN(Cc3cnn(C)c3)CCN2C(=O)c2cc(C(F)(F)F)cc(C(F)(F)F)c2)cc1C.Cl [Example 51, (2R)-1-[3,5-bis(trifluoromethyl)benzoyl]-2-(3,4-dimethylbenzyl)-4-[(1-methyl-1H-pyrazol-4-yl)methyl]piperazine hydrochloride] | 243 to 244 °C | > 80% | – |
| Cc1ccc(C[C@@H]2CN(CCN3CCOCC3)CCN2C(=O)c2cc(C(F)(F)F)cc(C(F)(F)F)c2)cc1C.Cl.Cl [37-(5), (2R)-4-(2-Morpholinoethyl)-1-[3,5-bis(trifluoromethyl)benzoyl]-2-(3,4-dimethylbenzyl)piperazine dihydrocloride] | – | – | 100% |
| Cc1ccc(C[C@@H]2CN(CCCN3CCOCC3)CCN2C(=O)c2cc(C(F)(F)F)cc(C(F)(F)F)c2)cc1C.Cl.Cl [53-(1), (2R)-1-[3,5-Bis(trifluoromethyl)benzoyl]-2-(3,4-dimethylbenzyl)-4-(3-morpholinopropyl) piperazine dihydrochloride] | 220 to 230 °C | > 80% | – |
| Cl.Cl.O=C(c1cc(C(F)(F)F)cc(C(F)(F)F)c1)N1CCN(CC#CCN2CCSCC2)C[C@H]1Cc1ccc(F)cc1 [84-(1), (2R)-1-[3,5-Bis(trifluoromethyl)benzoyl]-2-(4-fluorobenzyl)-4-(4-thiomorpholino-2-butynyl) piperazine dihydrochloride] | 180 °C (dec.) | > 80% | – |
| Cl.Cl.O=C(c1cc(C(F)(F)F)cc(C(F)(F)F)c1)N1CCN(CCCN2CCSCC2)C[C@H]1Cc1c[nH]c2ccccc12 [Example 23, (2R)-1-[3,5-bis(trifluoromethyl)benzoyl]-2-(1H-indol-3-ylmethyl)-4-(3-thiomorpholinopropyl) piperazine dihydrochloride] | – | > 80% | 100% |
| COCC1CN(CC#CCN2CCN(C(=O)c3cc(C(F)(F)F)cc(C(F)(F)F)c3)[C@H](Cc3ccc(C)c(C)c3)C2)CCO1.Cl.Cl (stereo partly drawn) [59-(1), (2R)-1-[3,5-Bis(trifluoromethyl)benzoyl]-2-(3,4-dimethylbenzyl)-4-[4-(2-methoxymethylmorpholino)-2-butynyl]piperazine dihydrochloride] | 150 to 165 °C | > 80% | – |
| Cc1ccc(C[C@@H]2CN(CCN3CCSCC3)CCN2C(=O)c2cc(C(F)(F)F)cc(C(F)(F)F)c2)cc1C.Cl.Cl [Example 37-(8), (2R)-4-(2-Thiomorpholinoethyl)-1-[3,5-bis (trifluoromethyl)benzoyl]-2-(3,4-dimethylbenzyl) piperazine dihydrochloride] | 261.5 °C | > 80% | – |
| CC(=O)c1ccc(C(=O)N2CCN(C(=O)c3cc(C(F)(F)F)cc(C(F)(F)F)c3)[C@H](Cc3ccc(Cl)c(Cl)c3)C2)cc1 [Example 12, (2R)-4-(4-acetylbenzoyl)-1-[3,5-bis (trifluoromethyl)benzoyl]-2-(3,4-dichlorobenzyl)piperazine] | – | > 80% | 100% |
| CC1(C)COCCN1CC=CCN1CCN(C(=O)c2cc(C(F)(F)F)cc(C(F)(F)F)c2)[C@H](Cc2c[nH]c3ccccc23)C1.Cl.Cl [Example 86, (2R) -1-[3,5-Bis(trifluoromethyl)benzoyl]-2-(1H-indol-3-ylmethyl)-4-[4-(3,3-dimethylmorpholino)-2-butenyl]piperazine dihydrochloride] | 210 °C (dec.) | > 80% | – |
| Cc1ccc(C[C@@H]2CN(CC#CCN3CCOCC3)CCN2C(=O)c2cc(C(F)(F)F)cc(C(F)(F)F)c2)cc1C.Cl.Cl [37-(2), (2R)-4-(4-Morpholino-2-butynyl)-1-[3,5-bis (trifluoromethyl)benzoyl]-2-(3,4-dimethylbenzyl) piperazine dihydrochloride] | 155 to 162 °C | > 80% | – |
| Cl.Cl.O=C(c1cc(C(F)(F)F)cc(C(F)(F)F)c1)N1CCN(CC#CCN2CCSCC2)C[C@H]1Cc1c[nH]c2ccccc12 [Example 37-(4), (2R)-4-(4-Thiomorpholino-2-butynyl)-1-[3,5-bis (trifluoromethyl)benzoyl]-2-(1H-indol-3-ylmethyl) piperazine dihydrochloride] | 166 to 170 °C | > 80% | – |

The next lines start with results.

| melting point | inhibition at 1 mg/kg [1] | Compound | inhibition rate of emesis in the ferret [2] |
| --- | --- | --- | --- |
| 243 to 246 °C | > 80% | Cc1ccc(C[C@@H]2CN(C/C=C\CN3CCOCC3)CCN2C(=O)c2cc(C(F)(F)F)cc(C(F)(F)F)c2)cc1C.Cl.Cl [Example 72, (2R)-1-[3,5-Bis(trifluoromethyl)benzoyl]-2-(3,4-dimethylbenzyl)-4-[(Z)-4-morpholino-2-butenyl]piperazine dihydrochloride] | – |
| 180 to 190 °C | > 80% | Cc1ccc(C[C@@H]2CN(CC#CCN3CCOCC3(C)C)CCN2C(=O)c2cc(C(F)(F)F)cc(C(F)(F)F)c2)cc1C.Cl.Cl [Example 59-(3), (2R)-1-[3,5-Bis(trifluoromethyl)benzoyl]-2-(3,4-dimethylbenzyl)-4-[4-(3,3-dimethylmorpholino)-2-butynyl]piperazine dihydrochloride] | – |
| 123 to 128 °C | > 80% | Cl.Cl.O=C(c1cc(C(F)(F)F)cc(C(F)(F)F)c1)N1CCN(C/C=C/CN2CCOCC2)C[C@H]1Cc1c[nH]c2ccccc12 [Example 76, (2R)-1-[3,5-Bis(trifluoromethyl)benzoyl]-2-(1H-indol-3-ylmethyl)-4-[(E)-4-morpholino-2-butenyl]piperazine dihydrochloride] | – |
| 222 °C (dec.) | > 80% | COCCN(C)CCN1CCN(C(=O)c2cc(C(F)(F)F)cc(C(F)(F)F)c2)[C@H](Cc2ccc(C)c(C)c2)C1.Cl.Cl [Example 67-(13), (2R)-1-[3,5-Bis(trifluoromethyl)benzoyl]-2-(3,4-dimethylbenzyl)-4-[2-[N-(2-methoxyethyl) -N-methylamino]ethyl]piperazine dihydrochloride] | – |
| 236 to 242 °C | > 80% | Cc1ccc(C[C@@H]2CN(C/C=C/CN3CCOCC3)CCN2C(=O)c2cc(C(F)(F)F)cc(C(F)(F)F)c2)cc1C.Cl.Cl [Example 75, (2R)-1-[3,5-bis(trifluoromethyl)benzoyl]-2-(3,4-dimethylbenzyl)-4-[(E)-4-morpholino-2-butenyl]piperazine dihydrochloride] | – |
| 172 °C (dec.) | > 80% | CC(=O)c1ccc(CN2CCN(C(=O)c3cc(C(F)(F)F)cc(C(F)(F)F)c3)[C@H](Cc3c[nH]c4ccccc34)C2)cc1.Cl [Example 7, (2R)-4-(4-acetylbenzyl)-1-[3,5-bis(trifluoromethyl)benzoyl]-2-(1H-indol-3-ylmethyl) piperazine hydrochloride] | – |
| 235 to 238 °C | > 80% | Cc1ccc(C[C@@H]2CN(CCCCCN3CCOCC3)CCN2C(=O)c2cc(C(F)(F)F)cc(C(F)(F)F)c2)cc1C.Cl.Cl [Example 74, (2R)-1-[3,5-Bis(trifluoromethyl)benzoyl]-2-(3,4-dimethylbenzyl)-4-(5-morpholinopentyl) piperazine dihydrochloride] | – |
